In the assay the target is T1, human kallikrein 5 recombinant enzyme (KLK5) (Homo sapiens, UniProt Q9Y337).
T1 construct: The cleaved protein was then further purified on a 1 mL Heparin HP HITRAP column; 6His (cleaved yes); FLAG (cleaved yes); made in house; host or cells: Spodoptera frugiperda Super 9 insect cells (baculovirus, BAC-TO-BAC)
T1 sequence (Q9Y337 67-293 limits assumed): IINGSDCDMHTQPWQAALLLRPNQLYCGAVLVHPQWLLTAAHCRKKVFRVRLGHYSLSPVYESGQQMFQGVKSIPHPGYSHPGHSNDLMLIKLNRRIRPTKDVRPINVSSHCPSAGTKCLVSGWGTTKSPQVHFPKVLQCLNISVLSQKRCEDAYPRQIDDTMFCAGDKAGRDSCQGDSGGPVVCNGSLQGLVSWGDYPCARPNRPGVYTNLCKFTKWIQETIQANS
Kind of assay: Kinetic FLINT KLK5 assay. The following applies: 7.5 nM KLK5, 9 uM (Tos-Gly-Pro-Arg)2[R110] substrate, pH 8, each compound tested more than once; for IC50: read-out: average pIC50 (converted). The class given is biochemical. The method, then:
Recombinant KLK5 protein was generated from a recombinant baculovirus using the BAC-TO-BAC system (INVITROGEN) (pFastBac_hKLK5_6His-Q-FLAG) expressed in 5 L of Spodoptera frugiperda Super 9 insect cells with a viral infection rate of 1.0. The protein was secreted into HYCLONE SFX growth media (GE HEALTHCARE) from which it was extracted on a 5 mL HISTRAP EXCEL column (GE HEALTHCARE). The column was washed with 500 mM NaCl, 20 mM Tris pH 7.4 buffer and the protein eluted using 500 mM imidazole in 250 mM NaCl, 20 mM Tris pH 7.4 buffer. The eluent was captured on a 5 mL ANTI-FLAG M2 Affinity Gel column (SIGMA). KLK5 was eluted by competing off the bound protein with 0.2 mg/mL FLAG peptide (SIGMA) in 50 mM NaCl, 20 mM Tris-HCl pH 7.4 buffer. 1 M CaCl2 was added to the pooled fractions to a final concentration 2 mM and these were treated with 0.1 U of enterokinase (NOVAGEN) per μg of target protein. The proteins were incubated at room temperature for ˜48 h. The cleaved protein was then further purified on a 1 mL Heparin HP HITRAP column (GE HEALTHCARE) in 20 mM MOPS, pH 6.8 buffer, washed with 100 mM NaCl in 20 mM MOPS, pH 6.8 buffer and eluted with 700 mM NaCl in this buffer. Fractions containing KLK5 were pooled and concentrated using an AMICON concentrator with a molecular weight cut off of 10000 Da. For cryoprotection, glycerol was added to a final concentration of 50%. All purifications were carried out using a semi-automated ÄKTA systems from GE HEALTHCARE.
11 point, 3-fold serial dilutions of each supporting compound were prepared in DMSO and 50 nL of these solutions were dispensed into black LV 384-well plates (GREINER BIO-ONE, Stonehouse, UK) using an ECHO 555 acoustic dispenser (LABCYTE, Sunnyvale, Calif.). This gave a final assay concentration range between 10 μM and […] in 5 μL final assay volume. 50 nL DMSO was dispensed into columns 6 and 18 for high and low controls, respectively. The assay plates were sealed and stored at 4° C. until required.
Conditions for the assay of human kallikrein 5 recombinant enzyme (KLK5), were 100 mM sodium phosphate, pH 8, 1 mM CHAPS, 7.5 nM KLK5 enzyme (see above for preparation), 9 uM peptide substrate ((Tos-Gly-Pro-Arg)2[R110].2TFA) in a total reaction volume of 5 μL.
Assays were performed by initially dispensing 2.5 μL of an enzyme solution (15 nM KLK5 in sodium phosphate, pH 8, 1 mM CHAPS) into all wells of the assay plate (except for column 18) then, 2.5 μL of buffer to column 18 (to generate low controls). Reactions were initiated by addition of 2.5 μL of substrate solution [18 uM (Tos-Gly-Pro-Arg)2[R110].2TFA (Cambridge Research Biochemicals) in sodium phosphate, pH 8, 1 mM CHAPS] to all wells. Plates were immediately centrifuged to reach 1000 rpm before transfer to the reader. All additions were made using a MULTIDROP COMBI dispenser (THERMO FISHER SCIENTIFIC). The assay plates were transferred to a PERKIN ELMER VIEWLUX. The plates were excited at 485 nm and the rates of Rhodamine110 fluorecent emission measured at 535 nm, following cleavage of the substrate by KLK5. Ten measurements were taken over 5 minutes with a read interval of 30 seconds.
From the raw data, the enzyme reaction rates were calculated as relative fluorescence units (RFU). Using the 10 reads collected, per well, a straight line was fitted through data. Initial rates were calculated from the slope of the reaction progress curves. The rate data was normalised to % inhibition between high controls in column 6 (0% inhibition) and low controls in column 18 (100% inhibition). Dose response curves were fitted using the IDBS Primary module fit. The data were fitted by means of a four-parameter fit logistic:
Where x is the inhibitor concentration, y is inhibition (%), A is the minimum response, D is the maximum response, C is the IC50 for the curve and B is the Hill slope. The −log(IC50) gives the pIC50.

Structures can show the parent of a compound that is named as a salt.

Consider `Cl.N=C(N)c1ccc(C2Cc3ccccc3B(O)O2)cc1OCc1cccnc1` (centres unmarked) [Compound 8, 4-(1-hydroxy-3,4-dihydro-1H-benzo[c][1,2]oxaborinin-3-yl)-2-(pyridin-3-ylmethoxy)benzimidamide], for which the “average pIC50” value was found to be 8.2.

Regarding `N=C(N)c1ccc(C2Cc3ccc(C(F)(F)F)cc3B(O)O2)cc1OCc1cccc(Cl)c1` (centres unmarked) [Compound 5, 2-((3-chlorobenzyl)oxy)-4-(1-hydroxy-7-(trifluoromethyl)-3,4-dihydro-1H-benzo[c][1,2]oxaborinin-3-yl)benzimidamide], the IC50 was 7.94 nM.

Turning to `N=C(N)c1ccc(C2Cc3ccc(C(F)(F)F)cc3B(O)O2)cc1` (centres unmarked) [Compound 6, 4-(1-hydroxy-7-(trifluoromethyl)-3,4-dihydro-1H-benzo[c][1,2]oxaborinin-3-yl)benzimidamide], the IC50 is 10 nM.

In the case of `N=C(N)c1ccc([C@H]2Cc3ccc(C(F)(F)F)cc3B(O)O2)cc1OCc1cccnc1` [Compound 3, (R)-4-(1-hydroxy-7-(trifluoromethyl)-3,4-dihydro-1H-benzo[c][1,2]oxaborinin-3-yl)-2-(pyridin-3-ylmethoxy)benzimidamide], the IC50 is 39.8 nM.

In the case of `N=C(N)c1ccc([C@H]2Cc3ccc(C(F)(F)F)cc3B(O)O2)cc1OCc1cccnc1` [Compound 2, (R)-4-(1-hydroxy-7-(trifluoromethyl)-3,4-dihydro-1H-benzo[c][1,2]oxaborinin-3-yl)-2-(pyridin-3-ylmethoxy)benzimidamide hydrochloride salt], the IC50 was 3.98 nM.

Take `Cl.N=C(N)c1ccc(C2Cc3ccc(C(F)(F)F)cc3B(O)O2)cc1OCc1cccnc1` (centres unmarked) [Compound 1, 4-(1-Hydroxy-7-(trifluoromethyl)-3,4-dihydro-1H-benzo[c][1,2]oxaborinin-3-yl)-2-(pyridin-3-ylmethoxy)benzimidamide hydrochloride salt]: the “average pIC50” value is reported as 8.5.

With `Cl.N=C(N)c1ccc(C2Cc3cc(Cl)c(F)cc3B(O)O2)cc1OCc1cccnc1` (centres unmarked) [Compound 7, 4-(6-chloro-7-fluoro-1-hydroxy-3,4-dihydro-1H-benzo[c][1,2]oxaborinin-3-yl)-2-(pyridin-3-ylmethoxy)benzimidamide], the “average pIC50” value was 8.1.

For `N=C(N)c1ccc([C@@H]2Cc3ccc(C(F)(F)F)cc3B(O)O2)cc1OCc1cccnc1` [Compound 4], the IC50 was 3.98 nM.

The values above are taken from US11352372B2, “Benzimidamides compounds comprising an oxaborinin ring” (INSTITUT NATIONAL DE LA SANTÉ ET DE LA RECHERCHE MÉDICALE …, priority 2018, dated 2022).
